# Measured values taken from publication PMC4235525, “Anticancer Properties of Novel Rhenium Pentylcarbanato Compounds against MDA-MB-468(HTB-132) Triple Node Negative Human Breast Cancer Cell Lines” (British journal of pharmaceutical research, 2015).
# How the values were obtained:
# [1] = system: MDA-MB-468 (HTB-132) triple node negative breast cancer cell lines; assay: Trypan blue cytotoxicity assay, 48 h treatment; type: cell-based, human; conditions: drugs in DMSO, read-out: IC-50 (mean ± S.D.), concentration required to have 50% cell-growth inhibition, Breast Cancer HTB-132 cell lines
# Procedure: MDA-MB-468 (HTB-132) triple node negative breast cancer cell lineswere obtained from ATCC (USA), cultured inL-15 medium supplemented with 10% Fetal Bovine Serum(FBS), penicillin and streptomycin antibiotics and grownat 37°C inan incubator. The mouse glomerular mesangialcell line was a kind gift from Dr. C. Reilly of Virginia Tech University, USA. These cells were cultured in RPMI-1640 medium supplemented with 10%FBS, penicillin and streptomycin antibiotics and grown at 37°C in a carbon dioxide incubator.
# HTB-132 breast cancer cell lines were grown in six well plates to confluency, the cells were then kept in serum-free medium overnight and then treated with each of drugsPC1-6 (dissolved in DMSO) along with untreated cells and DMSO vehicular control for 48 hours. […] Atrypan blue assay was done to measure cell viability using a standard hemocytometer and light microscope.
# Each experiment was repeated three times and statistical t test was used to analyze the results with P<0.05.
# [2] = system: Balb/c mouse kidney (mouse glomerular mesangial) cell line; assay: Trypan blue cytotoxicity (nephrotoxicity) in mouse kidney cells; type: cell-based; conditions: 48 hours, trypan blue assay, drugs in DMSO; read-out: IC-50 (mean ± S.D.), concentration required to have 50% cell-growth inhibition, Mouse Mesangial cell lines
# Procedure: Aim To study the efficacy of novel rhenium compounds to treat triple node negative breast cancer. Place and Duration Six (6) novel rhenium pentycarbanato compounds (PC1-6) were synthesized and triple node negative breast cancer cell lines HTB-132 and Balb/c mouse kidney cell lines were treated with each of them for 48 hours. The results were analyzed by a common trypan blue cell death assay system and statistically analyzed. Place and Duration The compounds were synthesized, analyzed and evaluated at the Department of Chemistryof Morgan State University, Baltimore, Maryland and the Pharmaceutical Sciences Department of Elizabeth City State University campus of the University of North Carolina system. Methodology The novel rhenium compounds were synthesized from one-pot reactions of Re2(CO)10 with the corresponding α-diimine ligands in 1-pentanol.The compounds were characterized spectroscopically. The cell lines were cultured by standard cell culture procedure and treated with each of the six compounds in DMSO for 48 hours with a negative control and a DMSO vehicular control along with a cisplatin positive control.The cytotoxicity was evaluated by standard trypan blue assay and the results were statistically analyzed. […] Conclusion The novel rhenium compounds PC 1-6 can potentially find applications in the treatment of highly malignant triple node negative breast cancer. […]
substance,measurement,setting,value
cis-[Pt (NH3)2Cl2] [Cisplatin],IC50,[1],5000 ± 2500 nM
same,IC50,[2],1000 ± 2500 nM
